Data: US10508120B2, “TYK2 inhibitors and uses thereof” (Nimbus Lakshmi, Inc., priority 2017, dated 2019)
pKd: −log10 of the molar value. Read-outs that look alike come from different tables or passages of the source.

Key:
[1] = target: JAK2 kinase domain (JH1) (Homo sapiens (Human), UniProt O60674); experiment: JAK2 Radioactive Kinase Assay; assay type: biochemical; settings: for inhibition at 10 µM: read-out: JAK2 JH1% Inhibition @ 10 μM
Method in brief: (§1)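 Single-point screen: 10 μM test compound, radioactive kinase read-out, percent inhibition reported for each kinase domain.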

[2] = target: Tyk2 kinase domain (DH1) (Homo sapiens (Human), UniProt P29597); experiment: Tyk2 Radioactive Kinase Assay; assay type: biochemical; settings: for inhibition at 10 µM: read-out: Tyk2 JH1% Inhibition @ 10 μM
Sequence of Tyk2 kinase domain (DH1) (P29597 897-1176): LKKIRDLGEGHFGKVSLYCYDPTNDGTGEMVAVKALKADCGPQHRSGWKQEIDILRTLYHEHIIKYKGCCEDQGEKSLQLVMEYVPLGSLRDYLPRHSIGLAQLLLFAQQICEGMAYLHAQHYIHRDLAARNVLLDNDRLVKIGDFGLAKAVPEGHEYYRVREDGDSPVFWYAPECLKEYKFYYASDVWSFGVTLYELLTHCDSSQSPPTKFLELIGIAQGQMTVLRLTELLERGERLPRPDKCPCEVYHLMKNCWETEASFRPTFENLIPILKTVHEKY
Method in brief: as §1

[3] = target: human TYK2 (JH2domain-pseudokinase) (Homo sapiens (Human), UniProt P29597); experiment: TYK2 JH2 Domain Binding Assay (KINOMEscan)
Sequence of human TYK2 (JH2domain-pseudokinase) (P29597 556-888): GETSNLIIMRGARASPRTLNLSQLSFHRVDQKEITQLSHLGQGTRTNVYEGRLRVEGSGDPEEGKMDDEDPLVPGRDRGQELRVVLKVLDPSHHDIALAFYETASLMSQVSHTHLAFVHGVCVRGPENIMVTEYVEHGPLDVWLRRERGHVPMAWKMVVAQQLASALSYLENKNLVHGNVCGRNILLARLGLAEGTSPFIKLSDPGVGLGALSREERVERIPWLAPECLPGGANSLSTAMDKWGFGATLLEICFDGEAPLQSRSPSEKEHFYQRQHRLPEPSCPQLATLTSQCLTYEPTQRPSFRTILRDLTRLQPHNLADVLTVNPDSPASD
Method in brief: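 Displacement of a DNA-tagged TYK2 JH2 fusion (human, aa G556–D888, HEK293 extract, <0.1 nM) from ligand-coated beads over 1 h at RT; binding buffer PBS/0.05% Tween 20/10 mM DTT/0.1% BSA.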

Sequence of JAK2 kinase domain (JH1) (O60674 849-1124): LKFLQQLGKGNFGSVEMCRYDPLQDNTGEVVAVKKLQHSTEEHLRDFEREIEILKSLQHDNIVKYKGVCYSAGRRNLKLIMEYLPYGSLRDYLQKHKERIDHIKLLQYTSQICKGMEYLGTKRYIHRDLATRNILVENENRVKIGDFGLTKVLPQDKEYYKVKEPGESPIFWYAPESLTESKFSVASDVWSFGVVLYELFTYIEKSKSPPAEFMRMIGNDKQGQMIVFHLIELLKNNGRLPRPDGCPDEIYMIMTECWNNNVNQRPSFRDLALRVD

inhibition at 10 µM ([1]; 10 μM compound, 10 μM ATP)	inhibition at 10 µM ([2]; 10 μM compound, 10 μM ATP)	pKd [3]	inhibition at 10 µM ([1]; compound at 10 μM, ATP 10 μM)	inhibition at 10 µM ([2]; compound at 10 μM, ATP 10 μM)	SMILES	JAK2 JH1% Inhibition @ 10 μM ([1]; compound at 10 μM, ATP 10 μM)	Tyk2 JH1% Inhibition @ 10 μM ([2]; compound at 10 μM, ATP 10 μM)
< 50%	< 50%	9.00 to 9.70	–	–	CNc1cc(Nc2cccn(C3CCCCC3)c2=O)nc2c(C(=O)NC[C@H](C)CO)cnn12 [I-1120]	–	–
–	–	9.00 to 9.70	< 50%	< 50%	CNc1cc(Nc2cccnc2OC2CCC2)nc2c(C(=O)NC3CCC3)cnn12 [I-168]	–	–
–	–	9.00 to 9.70	< 50%	< 50%	CNc1cc(Nc2cccc(C3CCCCO3)n2)nc2c(C(=O)NCC3(CO)CC3)cnn12 (stereo not drawn) [I-530]	–	–
–	–	8.00 to 9.00	< 50%	< 50%	CNc1cc(Nc2cccn([C@H]3CCOC[C@H]3OC)c2=O)nc2c(C(=O)NC3CC3)cnn12 [I-595]	–	–
–	–	> 9.70	< 50%	< 50%	CNc1cc(Nc2cccn(-c3ccccn3)c2=O)nc2c(C(=O)N[C@H]3CC[C@@H]3O)cnn12 [I-705]	–	–
–	–	8.00 to 9.00	< 50%	< 50%	Cc1c(Nc2cccnc2OC(C)C)nc2c(C(=O)N[C@@H]3C[C@@H]3F)cnn2c1N (stereo in doubt) [I-206, 7-amino-N-((1R,2S)-2-fluorocyclopropyl)-5-((2-isopropoxypyridin-3-yl)amino)-6-methylpyrazolo[1,5-a]pyrimidine-3-carboxamide]	–	–
< 50%	< 50%	> 9.70	–	–	CNc1cc(Nc2cccn([C@H]3CC[C@](C)(OC)CC3)c2=O)nc2c(C(=O)N[C@H]3CC[C@@H]3O)cnn12 [I-1108]	–	–
–	–	> 9.70	< 50%	< 50%	CNc1cc(Nc2cc(F)cn(C3CCN(C)CC3)c2=O)nc2c(C(=O)NC3CC3)cnn12 [I-625]	–	–
–	–	> 9.70	< 50%	< 50%	CNc1cc(Nc2cccn(-c3ccc(F)cn3)c2=O)nc2c(C(=O)NC3CC3)cnn12 [I-116]	–	–
–	–	9.00 to 9.70	< 50%	< 50%	CNc1cc(Nc2cccn([C@@H]3CCOC3)c2=O)nc2c(C(N)=O)cnn12 [I-195]	–	–
–	–	> 9.70	< 50%	< 50%	CNc1cc(Nc2cccn(C3CCN(CCC#N)CC3)c2=O)nc2c(C(=O)N[C@H]3C[C@H]3F)cnn12 [I-628, -((1-(1-(2-cyanoethyl)piperidin-4-yl)-2-oxo-1,2-dihydropyridin-3-yl)amino)-N-((1R,2S)-2-fluorocyclopropyl)-7-(methylamino)pyrazolo[1,5-a]pyrimidine-3-carboxamide]	–	–
< 50%	< 50%	8.00 to 9.00	–	–	CNc1cc(-c2cn(C(C)C)c3ncccc23)nc2c(C(=O)N[C@H]3COC[C@H]3O)cnn12 [I-841, N-((3S,4S)-4-hydroxytetrahydrofuran-3-yl)-5-(1-isopropyl-1H-pyrrolo[2,3-b]pyridin-3-yl)-7-(methylamino)pyrazolo[1,5-a]pyrimidine-3-carboxamide]	–	–
< 50%	< 50%	9.00 to 9.70	–	–	CNC(=O)c1nscc1Nc1cc(NC)n2ncc(C(=O)NC3CC3)c2n1 [I-913]	–	–
–	–	> 9.70	< 50%	< 50%	CNc1cc(Nc2cccc([C@H]3CCCCO3)n2)nc2c(C(=O)N[C@H]3CC[C@H]3O)cnn12 [I-647]	–	–
–	–	8.00 to 9.00	< 50%	< 50%	CNc1cc(Nc2cccn(C3CCCCC3)c2=O)nc2c(C(N)=O)cnn12 [I-12]	–	–
–	–	9.00 to 9.70	< 50%	< 50%	CNc1cc(-c2c[nH]c3c(C4CCOCC4)cc(Cl)cc23)nc2c(C(=O)NC3CC3)cnn12 [I-197]	–	–
–	–	9.00 to 9.70	–	–	CNc1cc(Nc2cccn(C3CCOCC3)c2=O)nc2c(C(=O)N[C@H]3CC[C@H]3O)cnn12 [I-557]	A (percent inhibition at 10 μM lower than 50)	A (percent inhibition at 10 μM lower than 50)
–	–	> 9.70	< 50%	< 50%	CNc1cc(Nc2cccc(N3CC(O)C3)n2)nc2c(C(=O)NC3CC3)cnn12 [I-620]	–	–
